This passage reports melting point results from US20220023172A1, “COSMETIC COMPOSITIONS AND METHODS OF USE” (STC.UNM, priority 2018, published 2022).

What is called melting point is the temperature, or range, at which the solid turns liquid. `COc1ccccc1/C=C/c1ccccc1F` showed a melting point of 34 to 35 °C. As for `COc1cccc(/C=C/c2ccc(F)cc2)c1OC`, the figure is 50 to 51 °C. The result for `COc1ccc(OC)c(/C=C/c2ccc(F)cc2)c1` reads 58 to 59 °C; that for `Cc1ccc(/C=C/c2ccc(F)c(F)c2)cc1`, 90 to 92 °C. The result for `COc1ccc(/C=C/c2cc(F)ccc2F)cc1` reads 109 to 110 °C; that for `Fc1ccc(/C=C/c2ccccc2F)cc1F`, 85 to 86 °C.

As to `COc1ccc(/C=C/c2ccc(F)c(F)c2)cc1`, the melting point was 73 to 74 °C. As for `Fc1ccc(F)c(/C=C/c2ccccc2F)c1`, the melting point is 79 to 81 °C. As for `Fc1cccc(/C=C/c2ccc(F)c(F)c2)c1`, the figure is 48 to 49 °C; as for `Fc1cccc(/C=C/c2cc(F)ccc2F)c1`, 73 to 74 °C; as for `Fc1cccc(/C=C/c2ccc(F)cc2F)c1`, 60 to 61 °C. The result for `Fc1ccc(/C=C/c2ccccc2F)c(F)c1` reads 84 to 85 °C; that for `Cc1ccc(/C=C/c2ccc(F)cc2F)cc1`, 72 to 73 °C; that for `Fc1ccc(/C=C/c2cc(F)ccc2F)cc1`, 76 to 77 °C. Take `COc1cccc(/C=C/c2ccc(C)cc2)c1OC`: the melting point lay within 38 to 40 °C.

Take `COc1cccc(/C=C/c2ccccc2OC)c1`: the melting point was in the range of 49 to 50 °C.

`COc1cccc(/C=C/c2cc(OC)ccc2OC)c1` returned a melting point of 48 to 49 °C. As for `COc1cccc(/C=C/c2ccc(C(F)(F)F)cc2)c1OC`, the figure is 67 to 69 °C.
